Assay results from the supplement of paper PMC11061612.

Key:
Assay in all cases: combination Emax (second highest fraction inhibited in the dose matrix, 72 h); higher = more inhibition; extreme values may be limits of the assay
WM793B (Melanoma) = system: WM793B (Melanoma)
In short: (§1)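 Cell lines in DMEM/F12 or RPMI with 10% FBS were plated in 1536-well plates, held 24 hours at 37°C, 5% CO2, then given two-drug dose matrices for 72 hours (DMSO typically 0.2%). Viability was read by CellTiter-Glo 2.0 luminescence and scaled as inhibition from 0 (vehicle wells) to 1 (blank wells). Combination Emax is the second-highest inhibition in the matrix; Bliss excess is observed combination effect minus expected EA + EB − EA·EB, EA and EB being single-agent effects.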

[1] = system: CAL-62 (Thyroid Gland Carcinoma)
In short: as §1

[2] = system: LXF-289 (Lung Adenocarcinoma)
In short: as §1

[3] = system: NCI-H23 (Lung Adenocarcinoma)
In short: as §1

[4] = system: LB996-RCC (Kidney Carcinoma)
In short: as §1

C[C@@H]1COCCN1c1cc(C2([S@](C)(=N)=O)CC2)nc(-c2ccnc3[nH]ccc23)n1 [AZD6738] + O=C(c1cc(Cc2n[nH]c(=O)c3ccccc23)ccc1F)N1CCN(C(=O)C2CC2)CC1 [Olaparib] (first compound max 10 µM, 7x7, partner max 10 µM)
combination Emax (WM793B (Melanoma)): 0.822 | combination Emax [1]: 0.899 | combination Emax [2]: 0.516 | combination Emax [3]: 0.753 | combination Emax [4]: 0.675

CCc1c2c(nc3ccc(O)cc13)-c1cc3c(c(=O)n1C2)COC(=O)[C@]3(O)CC [SN-38] + CN(C)CCCOc1ccc(-c2ccc3ncc4c(c3c2)n(C2CCOCC2)c(=O)n4C)cn1 [AZD0156] (first compound max 0.3 µM, 7x7, partner max 1 µM)
combination Emax (WM793B (Melanoma)): 0.85 | combination Emax [1]: 0.872 | combination Emax [2]: 0.599 | combination Emax [3]: 0.554 | combination Emax [4]: 0.898

COc1cc2c(cc1OCCCCCOc1cc3c(cc1OC)C(=O)N1C=C(C)C[C@H]1C=N3)N=C[C@@H]1CC(C)=CN1C2=O [SG3199] + O=C(c1cc(Cc2n[nH]c(=O)c3ccccc23)ccc1F)N1CCN(C(=O)C2CC2)CC1 [Olaparib] (first compound max 0.001 µM, 7x7, partner max 10 µM)
combination Emax (WM793B (Melanoma)): 0.194 | combination Emax [1]: 0.102 | combination Emax [2]: 0.119 | combination Emax [3]: 0.253 | combination Emax [4]: 0.282

Cc1cc2ncnn2cc1Nc1ncc2c(n1)n(C1CCOCC1)c(=O)n2C [AZD7648] + C=CCn1c(=O)c2cnc(Nc3ccc(N4CCN(C)CC4)cc3)nc2n1-c1cccc(C(C)(C)O)n1 [AZD1775] (first compound max 10 µM, partner max 1 µM)
combination Emax (WM793B (Melanoma)): 0.584 | combination Emax [1]: 0.69 | combination Emax [2]: 0.476 | combination Emax [3]: 0.786 | combination Emax [4]: 0.762

CCN(CCO)CCCOc1ccc2c(Nc3cc(CC(=O)Nc4cccc(F)c4)[nH]n3)ncnc2c1 [AZD2811] + C[C@@H]1COCCN1C2=NC(=NC(=C2)C3(CC3)[S@](=N)(=O)C)C4=C5C=CNC5=NC=C4 [AZD6738] (first compound max 1 µM, 7x7, partner max 10 µM)
combination Emax (WM793B (Melanoma)): 0.769 | combination Emax [1]: 0.741 | combination Emax [2]: 0.516 | combination Emax [3]: 0.785 | combination Emax [4]: 0.602

Cc1cc2ncnn2cc1Nc1ncc2c(n1)n(C1CCOCC1)c(=O)n2C [AZD7648] + C[C@@H]1COCCN1C2=NC(=NC(=C2)C3(CC3)[S@](=N)(=O)C)C4=C5C=CNC5=NC=C4 [AZD6738] (first compound max 10 µM, 7x7, partner max 10 µM)
combination Emax (WM793B (Melanoma)): 0.818 | combination Emax [1]: 0.724 | combination Emax [2]: 0.369 | combination Emax [3]: 0.603 | combination Emax [4]: 0.668

COc1cccc(OCCCN)c1-c1cc(Nc2cnc(C#N)cn2)n[nH]1 [Prexasertib] + Cc1cc2ncnn2cc1Nc1ncc2c(n1)n(C1CCOCC1)c(=O)n2C [AZD7648] (first compound max 1 µM, 7x7, partner max 10 µM)
combination Emax (WM793B (Melanoma)): 0.866 | combination Emax [1]: 0.776 | combination Emax [2]: 0.724 | combination Emax [3]: 0.889 | combination Emax [4]: 0.776

COc1cccc(OCCCN)c1-c1cc(Nc2cnc(C#N)cn2)n[nH]1 [Prexasertib] + C[C@@H]1COCCN1C2=NC(=NC(=C2)C3(CC3)[S@](=N)(=O)C)C4=C5C=CNC5=NC=C4 [AZD6738] (first compound max 1 µM, 7x7, partner max 10 µM)
combination Emax (WM793B (Melanoma)): 0.907 | combination Emax [1]: 0.785 | combination Emax [2]: 0.762 | combination Emax [3]: 0.884 | combination Emax [4]: 0.786

Cc1cc2ncnn2cc1Nc1ncc2c(n1)n(C1CCOCC1)c(=O)n2C [AZD7648] + O=C(c1cc(Cc2n[nH]c(=O)c3ccccc23)ccc1F)N1CCN(C(=O)C2CC2)CC1 [Olaparib] (first compound max 10 µM, 7x7, partner max 10 µM)
combination Emax (WM793B (Melanoma)): 0.341 | combination Emax [1]: 0.377 | combination Emax [2]: 0.177 | combination Emax [3]: 0.213 | combination Emax [4]: 0.423

CCN(CCO)CCCOc1ccc2c(Nc3cc(CC(=O)Nc4cccc(F)c4)[nH]n3)ncnc2c1 [AZD2811] + C=CCn1c(=O)c2cnc(Nc3ccc(N4CCN(C)CC4)cc3)nc2n1-c1cccc(C(C)(C)O)n1 [AZD1775] (first compound max 1 µM, partner max 1 µM)
combination Emax (WM793B (Melanoma)): 0.497 | combination Emax [1]: 0.787 | combination Emax [2]: 0.573 | combination Emax [3]: 0.829 | combination Emax [4]: 0.842

COc1cccc(OCCCN)c1-c1cc(Nc2cnc(C#N)cn2)n[nH]1 [Prexasertib] + C=CCn1c(=O)c2cnc(Nc3ccc(N4CCN(C)CC4)cc3)nc2n1-c1cccc(C(C)(C)O)n1 [AZD1775] (first compound max 1 µM, partner max 1 µM)
combination Emax (WM793B (Melanoma)): 0.938 | combination Emax [1]: 0.86 | combination Emax [2]: 0.834 | combination Emax [3]: 0.918 | combination Emax [4]: 0.877

C=CCn1c(=O)c2cnc(Nc3ccc(N4CCN(C)CC4)cc3)nc2n1-c1cccc(C(C)(C)O)n1 [AZD1775] + C[C@@H]1COCCN1C2=NC(=NC(=C2)C3(CC3)[S@](=N)(=O)C)C4=C5C=CNC5=NC=C4 [AZD6738] (first compound max 1 µM, partner max 10 µM)
combination Emax (WM793B (Melanoma)): 0.875 | combination Emax [1]: 0.928 | combination Emax [2]: 0.771 | combination Emax [3]: 0.913 | combination Emax [4]: 0.84
